Values joined by “and” are separate entries in the source; they are usually repeats but may differ in a detail not shown here. Identical values can stand only once. Toxic doses and inconclusive results are not listed. Rule as the data show it: active = T/C of 150% or more; inactive = T/C below 125%.
Tested on: L1210 leukemia ip in BDF1 mice, survival T/C
Experiment: NCI In Vivo Anticancer Drug Screen. Data for tumor model L1210 Leukemia (intraperitoneal) in B6D2F1 (BDF1) mice
Settings: endpoint: mean survival time, higher = longer survival
How it was run: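 Survival endpoint. Drug-treated group vs vehicle group, expressed as T divided by C. Tumor passaged by transplantation.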

[1] = dose: 100.0 mg/kg/injection, schedule: Q04DX002 (ip), vehicle: Klucel (hydroxypropylcellulose) (HPC)
[2] = dose: 200.0 mg/kg/injection, schedule: Q04DX002 (ip), vehicle: Klucel (hydroxypropylcellulose) (HPC)
[3] = dose: 400.0 mg/kg/injection, schedule: Q04DX002 (ip), vehicle: Klucel (hydroxypropylcellulose) (HPC)
[4] = dose: 100.0 mg/kg/injection, schedule: Q01DX001 (ip), vehicle: Klucel (hydroxypropylcellulose) (HPC)
[5] = dose: 200.0 mg/kg/injection, schedule: Q01DX001 (ip), vehicle: Klucel (hydroxypropylcellulose) (HPC)
[6] = dose: 100.0 mg/kg/injection, schedule: Q04DX003 (ip), vehicle: Klucel (hydroxypropylcellulose) (HPC)
[7] = dose: 200.0 mg/kg/injection, schedule: Q04DX003 (ip), vehicle: Klucel (hydroxypropylcellulose) (HPC)
[8] = dose: 25.0 mg/kg/injection, schedule: Q01DX009 (ip), vehicle: saline with Tween-80
[9] = dose: 50.0 mg/kg/injection, schedule: Q01DX009 (ip), vehicle: saline with Tween-80
[10] = dose: 100.0 mg/kg/injection, schedule: Q01DX009 (ip), vehicle: saline with Tween-80
[11] = dose: 100.0 mg/kg/injection, schedule: Q04DX003 (ip), vehicle: saline with Tween-80
[12] = dose: 100.0 mg/kg/injection, schedule: Q04DX002 (ip), vehicle: saline with Tween-80
[13] = dose: 200.0 mg/kg/injection, schedule: Q04DX002 (ip), vehicle: saline with Tween-80
[14] = dose: 400.0 mg/kg/injection, schedule: Q04DX002 (ip), vehicle: saline with Tween-80
[15] = dose: 400.0 mg/kg/injection, schedule: Q04DX003 (ip), vehicle: Klucel (hydroxypropylcellulose) (HPC)
[16] = dose: 100.0 mg/kg/injection, schedule: Q01DX001 (ip), vehicle: saline
[17] = dose: 200.0 mg/kg/injection, schedule: Q01DX001 (ip), vehicle: saline
[18] = dose: 400.0 mg/kg/injection, schedule: Q01DX001 (ip), vehicle: saline
[19] = dose: 200.0 mg/kg/injection, schedule: Q01DX009 (ip), vehicle: Klucel (hydroxypropylcellulose) (HPC)
[20] = dose: 400.0 mg/kg/injection, schedule: Q01DX009 (ip), vehicle: Klucel (hydroxypropylcellulose) (HPC)

Measured: T/C

CSc1ccc(OC(=O)Nc2ccc(Cl)cc2)cc1C
inactive: dose: 100.0 mg/kg/injection, schedule: Q01DX001 (ip), vehicle: carboxymethylcellulose (CMC) 89 % of control | dose: 100.0 mg/kg/injection, schedule: Q01DX009 (ip), vehicle: carboxymethylcellulose (CMC) 97 % of control and 100 % of control | [1] 103 % of control | dose: 100.0 mg/kg/injection, schedule: Q04DX002 (ip), vehicle: carboxymethylcellulose (CMC) 106 % of control and 108 % of control | dose: 200.0 mg/kg/injection, schedule: Q01DX001 (ip), vehicle: carboxymethylcellulose (CMC) 102 % of control | dose: 200.0 mg/kg/injection, schedule: Q01DX009 (ip), vehicle: carboxymethylcellulose (CMC) 93 % of control and 97 % of control | [2] 98 % of control | dose: 200.0 mg/kg/injection, schedule: Q04DX002 (ip), vehicle: carboxymethylcellulose (CMC) 94 % of control and 108 % of control | dose: 400.0 mg/kg/injection, schedule: Q01DX001 (ip), vehicle: carboxymethylcellulose (CMC) 93 % of control | [3] 92 % of control | dose: 400.0 mg/kg/injection, schedule: Q04DX002 (ip), vehicle: carboxymethylcellulose (CMC) 95 % of control and 104 % of control

CCOC(=O)c1ncc(Cl)cc1N
inactive: [4] 106 % of control | [5] 108 % of control

O=[N+]([O-])c1ccc2ncccc2c1
inactive: [6] 106 % of control | [7] 101 % of control

NC(=S)Nc1ccccn1
inactive: [8] 103 % of control | [9] 90 % of control | [10] 101 % of control | [11] 98 % of control

CC(=O)CC(=O)NC1CCCCC1
inactive: [10] 105 % of control | [11] 96 % of control | dose: 200.0 mg/kg/injection, schedule: Q01DX009 (ip), vehicle: saline with Tween-80 100 % of control | dose: 200.0 mg/kg/injection, schedule: Q04DX003 (ip), vehicle: saline with Tween-80 94 % of control | dose: 400.0 mg/kg/injection, schedule: Q01DX009 (ip), vehicle: saline with Tween-80 95 % of control | dose: 400.0 mg/kg/injection, schedule: Q04DX003 (ip), vehicle: saline with Tween-80 94 % of control

NC(=O)/C(=C\c1ccc([N+](=O)[O-])o1)c1ccccc1
inactive: [4] 96 % of control | [5] 93 % of control | dose: 400.0 mg/kg/injection, schedule: Q01DX001 (ip), vehicle: Klucel (hydroxypropylcellulose) (HPC) 96 % of control

Nc1cc(NC(=O)c2ccc(Cl)cc2)ccc1S(=O)(=O)O
inactive: [12] 104 % of control | [13] 93 % of control | [14] 93 % of control

CC(=O)Nc1nc(Cl)c2ncn(C3OC(COCc4ccccc4)C(OCc4ccccc4)C3OCc3ccccc3)c2n1 (stereo unspecified)
inactive: [6] 103 % of control | [7] 103 % of control | [15] 104 % of control

CCCCCC/C=C\[N+](=O)[O-]
inactive: dose: 50.0 mg/kg/injection, schedule: Q01DX001 (ip), vehicle: saline with Tween-80 109 % of control

O=C(COC(=O)c1ccccc1O)c1ccc(-c2ccccc2)cc1
inactive: [16] 94 % of control | [17] 88 % of control | [18] 88 % of control

Cc1[nH]cnc1C(c1ccccc1)c1ccccc1
inactive: dose: 100.0 mg/kg/injection, schedule: Q01DX001 (ip), vehicle: saline with Tween-80 108 % of control | dose: 200.0 mg/kg/injection, schedule: Q01DX001 (ip), vehicle: saline with Tween-80 100 % of control

Cc1cc(C)c(S(=O)(=O)Nc2ccccc2F)c(C)c1
inactive: dose: 100.0 mg/kg/injection, schedule: Q01DX009 (ip), vehicle: Klucel (hydroxypropylcellulose) (HPC) 98 % of control | [19] 110 % of control | [20] 93 % of control

CCCCCCC/C=N/NC(=O)c1ccccc1
inactive: [6] 105 % of control | [7] 109 % of control | [15] 98 % of control

Cc1cc2nc(Cc3ccccc3)[nH]c2cc1C
inactive: [9] 90 % of control

N#CC1(C#N)C2C=CC(C3CC=CC32)C1(C#N)C#N (stereo unspecified)
inactive: dose: 12.5 mg/kg/injection, schedule: Q01DX009 (ip), vehicle: saline with Tween-80 101 % of control | [8] 97 % of control | dose: 25.0 mg/kg/injection, schedule: Q04DX003 (ip), vehicle: saline with Tween-80 108 % of control | dose: 50.0 mg/kg/injection, schedule: Q04DX003 (ip), vehicle: saline with Tween-80 105 % of control | [11] 93 % of control

CC1([N+](=O)[O-])COP(=O)(Nc2ccc(Br)cc2)OC1 (stereo unspecified)
inactive: dose: 50.0 mg/kg/injection, schedule: Q01DX001 (ip), vehicle: saline 93 % of control | [16] 98 % of control | [17] 104 % of control | [18] 122 % of control

CCN(CC)C(=S)[S][Pb]([S]C(=S)N(CC)CC)([c]1ccccc1)[c]1ccccc1
inactive: dose: 100.0 mg/kg/injection, schedule: Q01DX001 (ip), vehicle: steriod suspending solution 97 % of control | dose: 200.0 mg/kg/injection, schedule: Q01DX001 (ip), vehicle: steriod suspending solution 98 % of control | dose: 400.0 mg/kg/injection, schedule: Q01DX001 (ip), vehicle: steriod suspending solution 100 % of control

Cc1cc(CSC(=N)N)c(CSC(=N)N)cc1C
inactive: dose: 10.0 mg/kg/injection, schedule: Q01DX001 (ip), vehicle: saline 97 % of control | dose: 20.0 mg/kg/injection, schedule: Q01DX001 (ip), vehicle: saline 94 % of control | dose: 40.0 mg/kg/injection, schedule: Q01DX001 (ip), vehicle: saline 94 % of control

OCc1cc(Cl)ccc1O
inactive: dose: 100.0 mg/kg/injection, schedule: Q01DX009 (ip), vehicle: other 91 % of control | dose: 100.0 mg/kg/injection, schedule: Q04DX003 (ip), vehicle: other 103 % of control | dose: 200.0 mg/kg/injection, schedule: Q01DX009 (ip), vehicle: other 120 % of control | dose: 200.0 mg/kg/injection, schedule: Q04DX003 (ip), vehicle: other 95 % of control | dose: 400.0 mg/kg/injection, schedule: Q04DX003 (ip), vehicle: other 93 % of control

O=C1/C(=C/c2ccc([N+](=O)[O-])cc2)SC(=S)N1C1OC(CO)C(O)C(O)C1O (stereo unspecified)
inactive: dose: 25.0 mg/kg/injection, schedule: Q01DX005 (ip), vehicle: water 95 % of control | dose: 50.0 mg/kg/injection, schedule: Q01DX005 (ip), vehicle: water 95 % of control | dose: 100.0 mg/kg/injection, schedule: Q01DX005 (ip), vehicle: water 93 % of control

O=COCCN(C=O)c1ccc(C(=O)O)cc1
inactive: dose: 75.0 mg/kg/injection, schedule: Q01DX009 (ip), vehicle: Klucel (hydroxypropylcellulose) (HPC) 92 % of control | dose: 150.0 mg/kg/injection, schedule: Q01DX009 (ip), vehicle: Klucel (hydroxypropylcellulose) (HPC) 87 % of control | dose: 300.0 mg/kg/injection, schedule: Q01DX009 (ip), vehicle: Klucel (hydroxypropylcellulose) (HPC) 88 % of control

[Si]c1ccccc1
inactive: [12] 102 % of control | [13] 93 % of control | [14] 98 % of control

COc1cc(OC)c(NC(=S)Nc2ccccc2C(F)(F)F)cc1Cl
inactive: [1] 106 % of control | [19] 88 % of control | [2] 92 % of control | [20] 95 % of control | [3] 95 % of control

From PubChem BioAssay AID248 (DTP/NCI, 2004)
